Measured values taken from US20260098008A1, “COVALENT, CHEMOGENETIC ACTIVATORS FOR K2P POTASSIUM CHANNELS AND USES THEREOF” (THE REGENTS OF THE UNIVERSITY OF CALIFORNIA, priority 2022, published 2026).

Legend:
K2P2.1 (TREK-1) S131A = biological target: T1, K2P2.1 (TREK-1) S131A (Mus musculus, UniProt P97438, S146A); assay: TEVC in Xenopus oocytes; format: cell-based; settings: 20 μM, 0 mV
T1 construct: expressed in transfected cells; host or cells: Xenopus laevis oocytes injected with mRNA
T1 sequence (P97438 1-411 isoform P97438-2 S131A): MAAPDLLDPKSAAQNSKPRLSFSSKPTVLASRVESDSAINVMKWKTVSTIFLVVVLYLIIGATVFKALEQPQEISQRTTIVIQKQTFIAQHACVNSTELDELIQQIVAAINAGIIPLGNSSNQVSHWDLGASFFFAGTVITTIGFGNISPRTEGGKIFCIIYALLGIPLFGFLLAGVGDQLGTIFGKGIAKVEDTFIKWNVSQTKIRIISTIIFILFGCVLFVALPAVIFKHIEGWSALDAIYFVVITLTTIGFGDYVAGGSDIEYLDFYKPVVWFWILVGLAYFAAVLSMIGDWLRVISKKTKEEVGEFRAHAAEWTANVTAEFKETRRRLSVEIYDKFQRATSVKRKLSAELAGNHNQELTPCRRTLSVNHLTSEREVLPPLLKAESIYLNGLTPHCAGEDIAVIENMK

K2P4.1 (TRAAK) = biological target: T2, K2P4.1 (TRAAK) (Homo sapiens, UniProt Q9NYG8); settings: previous studies; cited from earlier work
T2 sequence (Q9NYG8 1-393): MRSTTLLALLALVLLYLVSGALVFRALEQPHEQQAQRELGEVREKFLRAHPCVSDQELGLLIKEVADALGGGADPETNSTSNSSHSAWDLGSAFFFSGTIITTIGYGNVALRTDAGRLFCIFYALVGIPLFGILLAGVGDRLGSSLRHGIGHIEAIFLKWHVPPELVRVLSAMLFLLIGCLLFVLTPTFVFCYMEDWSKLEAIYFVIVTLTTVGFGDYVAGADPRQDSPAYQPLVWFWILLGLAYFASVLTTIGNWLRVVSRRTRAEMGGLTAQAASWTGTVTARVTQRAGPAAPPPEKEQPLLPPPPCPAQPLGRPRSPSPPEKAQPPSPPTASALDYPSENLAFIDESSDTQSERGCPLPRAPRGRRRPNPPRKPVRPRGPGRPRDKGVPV

[1] = Solubility in aqueous solutions (crystallization sample preparation); format: physicochemical
Description: K2P2.1cryst ML335 and ML402 complex crystals grew in the same conditions as K2P2.1cyst, but the protein was incubated for at least 1 h with 2.5 mM of activator before setting the crystal plates. […] Then each compound was diluted 1:100 in SEC buffer to 5 mM concentration, giving a milky solution. This solution was mixed 1:1 to K2P2.1cryst previously concentrated to 12 mg ml^−1. […] The samples were briefly centrifuged in a table-top centrifuge (10,000 g) to remove any insoluble material before setting the crystal plates.

K2P18.1 (TRESK)^CG* = biological target: T3, K2P18.1 (TRESK)^CG* (Mus musculus, UniProt Q6VV64, S116C); assay: TEVC in Xenopus oocytes; format: cell-based; settings: 20 μM
T3 construct: expressed in transfected cells; host or cells: Xenopus laevis oocytes injected with mRNA
T3 sequence (Q6VV64 1-394 S116C): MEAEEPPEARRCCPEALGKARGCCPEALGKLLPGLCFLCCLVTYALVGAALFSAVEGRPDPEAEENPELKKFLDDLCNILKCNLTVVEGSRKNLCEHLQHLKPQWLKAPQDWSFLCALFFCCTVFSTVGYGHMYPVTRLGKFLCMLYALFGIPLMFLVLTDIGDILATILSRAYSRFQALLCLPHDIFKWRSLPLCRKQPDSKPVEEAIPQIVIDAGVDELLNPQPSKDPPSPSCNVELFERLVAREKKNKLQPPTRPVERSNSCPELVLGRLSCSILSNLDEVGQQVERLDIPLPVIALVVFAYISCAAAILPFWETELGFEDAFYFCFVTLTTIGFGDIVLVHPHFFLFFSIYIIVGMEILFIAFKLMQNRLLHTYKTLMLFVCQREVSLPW

Fold-activation (I activator/I control) (K2P2.1 (TREK-1) S131A) | Solubility in aqueous solutions [1] | Activation of channel (K2P18.1 (TRESK)^CG*) | SMILES | Sensitivity of channel to activator (K2P4.1 (TRAAK))
6.8 fold | insoluble in aqueous solutions |  | CS(=O)(=O)Nc1ccc(C(=O)NCc2ccc(Cl)cc2Cl)cc1 [ML335, reference compound] | insensitive
 |  | not activated | O=C(NCc1ccc(Cl)cc1Cl)c1ccc(N2C(=O)C=CC2=O)cc1 [CAT335] | 
